Test results taken from US12252524B2, “GIP/GLP1 co-agonist compounds” (Eli Lilly and Company, priority 2018, dated 2025).
Numbered stars: 1 amine (or outer) side, 2 acyl side, 3 side chain; on linkers, the order of the positions; unused ones are H or OH. Square brackets hold non-standard residues; d marks the D form. Side chains are listed from the residue outwards. Peptide text beside a SMILES is read from it. * marks the point of attachment. C20 diacid = O=C(O)CCCCCCCCCCCCCCCCCCC(=O)*; αMePhe(2-F) = C[C@](N)(Cc1ccccc1F)C(=O)O; γGlu = O=C(O)[C@H](CCC(=O)[*:2])N[*:1]; αMeF = C[C@](N)(Cc1ccccc1)C(=O)O; 3Pal = N[C@@H](Cc1cccnc1)C(=O)O; αMeL = CC(C)C[C@](C)(N)C(=O)O; Dap = NC[C@H](N)C(=O)O; AEEA = NCCOCCOCC(=O)O; Aib = CC(C)(N)C(=O)O

Key:
[1] = molecular target: human GLP-1 receptor (GLP-1R) (Homo sapiens, UniProt P43220); assay: cAMP pharmacological functional assay in presence of casein, hGLP-1R; format: cell-based; details: HEK293 cells expressing hGLP-1R, 0.1% Casein, geometric mean; read-out: hGLP1R cAMP Rel EC50 nM (SEM, n)
Chain of human GLP-1 receptor (GLP-1R) (P43220 24-463): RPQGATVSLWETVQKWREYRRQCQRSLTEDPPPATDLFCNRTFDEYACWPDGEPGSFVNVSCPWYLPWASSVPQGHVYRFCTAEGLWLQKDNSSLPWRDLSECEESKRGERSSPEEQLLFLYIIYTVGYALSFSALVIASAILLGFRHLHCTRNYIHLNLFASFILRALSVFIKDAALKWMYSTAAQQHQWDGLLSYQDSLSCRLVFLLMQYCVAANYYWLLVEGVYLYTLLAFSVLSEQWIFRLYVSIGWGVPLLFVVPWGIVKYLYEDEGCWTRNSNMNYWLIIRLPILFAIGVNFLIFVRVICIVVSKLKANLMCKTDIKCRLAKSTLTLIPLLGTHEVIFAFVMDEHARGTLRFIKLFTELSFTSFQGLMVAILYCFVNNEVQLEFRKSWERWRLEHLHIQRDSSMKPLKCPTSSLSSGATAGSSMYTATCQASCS

[2] = molecular target: T1, gastric inhibitory peptide receptor (GIPR) (Homo sapiens, UniProt P48546); assay: cAMP pharmacological functional assay in presence of casein, hGIPR; format: cell-based; details: HEK293 cells expressing hGIPR, 0.1% Casein, geometric mean; read-out: hGIPR cAMP Rel EC50 nM (SEM, n)
T1 sequence (P48546 22-466): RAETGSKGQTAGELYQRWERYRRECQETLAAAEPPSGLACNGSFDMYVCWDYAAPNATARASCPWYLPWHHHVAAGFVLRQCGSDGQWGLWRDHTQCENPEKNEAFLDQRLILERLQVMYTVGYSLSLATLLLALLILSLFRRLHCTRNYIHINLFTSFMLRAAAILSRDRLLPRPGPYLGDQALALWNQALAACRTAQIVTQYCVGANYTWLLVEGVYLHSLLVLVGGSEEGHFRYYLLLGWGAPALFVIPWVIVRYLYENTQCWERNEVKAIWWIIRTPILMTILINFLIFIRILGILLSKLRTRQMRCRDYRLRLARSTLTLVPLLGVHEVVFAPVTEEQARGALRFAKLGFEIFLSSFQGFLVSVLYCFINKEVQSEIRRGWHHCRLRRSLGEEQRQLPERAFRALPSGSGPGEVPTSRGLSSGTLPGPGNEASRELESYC

`CC[C@H](C)[C@H](NC(=O)[C@H](CC(C)C)NC(=O)[C@H](Cc1ccc(O)cc1)NC(=O)[C@@H](CCC(=O)O)NC(=O)[C@@H](NC(=O)[C@H](Cc1ccccc1)NC(=O)[C@@H](NC(=O)C(C)(C)NC(=O)[C@H](CCC(N)=O)NC(=O)[C@H](C)NC(=O)[C@H](CCCCNC(=O)COCCOCCNC(=O)COCCOCCNC(=O)CCCCCCCCCCCCCCCCCCC(=O)O)NC(=O)[C@H](CCC(=O)O)NC(=O)[C@H](CC(=O)O)NC(=O)[C@H](CC(C)C)NC(=O)[C@](C)(CC(C)C)NC(=O)[C@@H](NC(=O)[C@H](CO)NC(=O)[C@H](Cc1c[nH]cn1)NC(=O)[C@H](CC(=O)O)NC(=O)[C@H](CO)NC(=O)[C@@H](NC(=O)[C@](C)(Cc1ccccc1F)NC(=O)[C@@H](NC(=O)CNC(=O)[C@H](CCC(=O)O)NC(=O)C(C)(C)NC(=O)[C@@H](N)Cc1ccc(O)cc1)[C@@H](C)O)[C@@H](C)O)[C@@H](C)CC)[C@@H](C)O)[C@@H](C)CC)C(=O)N[C@@H](CCC(=O)O)C(=O)NCC(=O)NCC(=O)N1CCC[C@H]1C(=O)N[C@@H](CO)C(=O)N[C@@H](CO)C(=O)NCC(=O)N[C@@H](C)C(=O)N1CCC[C@H]1C(=O)N1CCC[C@H]1C(=O)N1CCC[C@H]1C(=O)N[C@@H](CO)C(N)=O` [Example 174] (H-Y[Aib]EGT[αMePhe(2-F)]TSDHSI[αMeL]LDEK([AEEA-AEEA-C20 diacid])AQ[Aib]TFI[dE]YLIEGGPSSGAPPPS-NH2) gave an EC50 [1] of 0.472 nM and an EC50 [2] of 0.217 nM.

With `CC[C@H](C)[C@H](NC(=O)[C@H](CC(C)C)NC(=O)[C@H](Cc1ccc(O)cc1)NC(=O)[C@H](CCC(N)=O)NC(=O)[C@@H](NC(=O)[C@H](Cc1ccccc1)NC(=O)[C@H](CCC(=O)O)NC(=O)C(C)(C)NC(=O)[C@H](CCC(N)=O)NC(=O)[C@H](C)NC(=O)[C@H](CCCCNC(=O)COCCOCCNC(=O)COCCOCCNC(=O)CC[C@H](NC(=O)CCCCCCCCCCCCCCCCCCC(=O)O)C(=O)O)NC(=O)[C@H](CCC(=O)O)NC(=O)[C@H](CC(=O)O)NC(=O)[C@H](CC(C)C)NC(=O)[C@](C)(CC(C)C)NC(=O)[C@@H](NC(=O)[C@H](CO)NC(=O)[C@H](Cc1ccc(O)cc1)NC(=O)[C@H](CC(=O)O)NC(=O)[C@H](CO)NC(=O)[C@@H](NC(=O)[C@](C)(Cc1ccccc1F)NC(=O)[C@@H](NC(=O)CNC(=O)[C@H](CCC(=O)O)NC(=O)C(C)(C)NC(=O)[C@@H](N)Cc1ccc(O)cc1)[C@@H](C)O)[C@@H](C)O)[C@@H](C)CC)[C@@H](C)CC)C(=O)N[C@@H](CCC(=O)O)C(=O)NCC(=O)NCC(=O)N1CCC[C@H]1C(=O)N[C@@H](CO)C(=O)N[C@@H](CO)C(=O)NCC(=O)N[C@@H](C)C(=O)N1CCC[C@H]1C(=O)N1CCC[C@H]1C(=O)N1CCC[C@H]1C(=O)N[C@@H](CO)C(N)=O` [Example 146] (H-Y[Aib]EGT[αMePhe(2-F)]TSDYSI[αMeL]LDEK([AEEA-AEEA-γGlu-C20 diacid])AQ[Aib]EFIQYLIEGGPSSGAPPPS-NH2) the EC50 [1] was 0.0604 nM and the EC50 [2] was 0.0583 nM.

Work on `CC[C@H](C)[C@H](NC(=O)[C@H](CCCCN)NC(=O)[C@H](CC(=O)O)NC(=O)[C@H](CC(C)C)NC(=O)[C@H](CC(C)C)NC(=O)[C@@H](NC(=O)[C@H](CO)NC(=O)[C@H](Cc1ccc(O)cc1)NC(=O)[C@H](CC(=O)O)NC(=O)[C@H](CO)NC(=O)[C@@H](NC(=O)[C@](C)(Cc1ccccc1)NC(=O)[C@@H](NC(=O)CNC(=O)[C@H](CCC(=O)O)NC(=O)C(C)(C)NC(=O)[C@@H](N)Cc1ccc(O)cc1)[C@@H](C)O)[C@@H](C)O)[C@@H](C)CC)C(=O)N[C@@H](C)C(=O)N[C@@H](CCC(N)=O)C(=O)NC(C)(C)C(=O)N[C@@H](CCCCNC(=O)COCCOCCNC(=O)COCCOCCNC(=O)CC[C@H](NC(=O)CCCCCCCCCCCCCCCCCCC(=O)O)C(=O)O)C(=O)N[C@@H](Cc1ccccc1)C(=O)N[C@H](C(=O)N[C@@H](CCC(=O)O)C(=O)N[C@@H](Cc1ccc(O)cc1)C(=O)N[C@@H](CC(C)C)C(=O)N[C@H](C(=O)N[C@@H](CCC(=O)O)C(=O)NCC(=O)NCC(N)=O)[C@@H](C)CC)[C@@H](C)CC` [Example 94] (H-Y[Aib]EGT[αMeF]TSDYSILLDKIAQ[Aib]K([AEEA-AEEA-γGlu-C20 diacid])FIEYLIEGG-NH2) yielded an EC50 [1] of 0.338 nM and an EC50 [2] of 0.425 nM.

In the case of `CC[C@H](C)[C@H](NC(=O)[C@H](CC(C)C)NC(=O)[C@H](Cc1ccc(O)cc1)NC(=O)[C@@H](CCC(=O)O)NC(=O)[C@@H](NC(=O)[C@H](Cc1ccccc1)NC(=O)[C@@H](NC(=O)C(C)(C)NC(=O)[C@H](CCC(N)=O)NC(=O)[C@H](C)NC(=O)[C@H](CCCCNC(=O)COCCOCCNC(=O)COCCOCCNC(=O)CC[C@H](NC(=O)CCCCCCCCCCCCCCCCCCC(=O)O)C(=O)O)NC(=O)[C@H](CN)NC(=O)[C@H](CC(=O)O)NC(=O)[C@H](CC(C)C)NC(=O)[C@](C)(CC(C)C)NC(=O)[C@@H](NC(=O)[C@H](CO)NC(=O)[C@H](Cc1c[nH]cn1)NC(=O)[C@H](CC(=O)O)NC(=O)[C@H](CO)NC(=O)[C@@H](NC(=O)[C@](C)(Cc1ccccc1F)NC(=O)[C@@H](NC(=O)CNC(=O)[C@H](CCC(=O)O)NC(=O)C(C)(C)NC(=O)[C@@H](N)Cc1ccc(O)cc1)[C@@H](C)O)[C@@H](C)O)[C@@H](C)CC)[C@@H](C)O)[C@@H](C)CC)C(=O)N[C@@H](CCC(=O)O)C(=O)NCC(=O)NCC(=O)N1CCC[C@H]1C(=O)N[C@@H](CO)C(=O)N[C@@H](CO)C(=O)NCC(=O)N[C@@H](C)C(=O)N1CCC[C@H]1C(=O)N1CCC[C@H]1C(=O)N1CCC[C@H]1C(=O)N[C@@H](CO)C(N)=O` [Example 173] (H-Y[Aib]EGT[αMePhe(2-F)]TSDHSI[αMeL]LD[Dap]K([AEEA-AEEA-γGlu-C20 diacid])AQ[Aib]TFI[dE]YLIEGGPSSGAPPPS-NH2), the EC50 [1] was 1.23 nM and the EC50 [2] was 0.586 nM.

Work on `CC[C@H](C)[C@H](NC(=O)[C@H](CC(C)C)NC(=O)[C@H](Cc1ccc(O)cc1)NC(=O)[C@H](CCC(=O)O)NC(=O)[C@@H](NC(=O)[C@H](Cc1ccccc1)NC(=O)[C@H](C)NC(=O)C(C)(C)NC(=O)[C@H](CCC(N)=O)NC(=O)[C@H](C)NC(=O)[C@H](CCCCNC(=O)COCCOCCNC(=O)COCCOCCNC(=O)CC[C@H](NC(=O)CCCCCCCCCCCCCCCCCCC(=O)O)C(=O)O)NC(=O)[C@H](CCCCN)NC(=O)[C@H](CC(=O)O)NC(=O)[C@H](CC(C)C)NC(=O)[C@H](CC(C)C)NC(=O)[C@@H](NC(=O)[C@H](CO)NC(=O)[C@H](Cc1cccnc1)NC(=O)[C@H](CC(=O)O)NC(=O)[C@H](CO)NC(=O)[C@@H](NC(=O)[C@](C)(Cc1ccccc1)NC(=O)[C@@H](NC(=O)CNC(=O)[C@H](CCC(=O)O)NC(=O)C(C)(C)NC(=O)[C@@H](N)Cc1ccc(O)cc1)[C@@H](C)O)[C@@H](C)O)[C@@H](C)CC)[C@@H](C)CC)C(=O)N[C@@H](CCC(=O)O)C(=O)NCC(=O)NCC(=O)N1CCC[C@H]1C(=O)N[C@@H](CO)C(=O)N[C@@H](CO)C(=O)NCC(=O)N[C@@H](C)C(=O)N1CCC[C@H]1C(=O)N1CCC[C@H]1C(=O)N1CCC[C@H]1C(=O)N[C@@H](CO)C(N)=O` [Example 132] (H-Y[Aib]EGT[αMeF]TSD[3Pal]SILLDKK([AEEA-AEEA-γGlu-C20 diacid])AQ[Aib]AFIEYLIEGGPSSGAPPPS-NH2) yielded an EC50 [1] of 0.26 nM and an EC50 [2] of 0.0657 nM.

With `CC[C@H](C)[C@H](NC(=O)[C@H](CC(C)C)NC(=O)[C@H](Cc1ccc(O)cc1)NC(=O)[C@H](CCC(=O)O)NC(=O)[C@@H](NC(=O)[C@H](Cc1ccccc1)NC(=O)[C@H](C)NC(=O)C(C)(C)NC(=O)[C@H](CCC(N)=O)NC(=O)[C@H](C)NC(=O)[C@H](CCCCNC(=O)COCCOCCNC(=O)COCCOCCNC(=O)CC[C@H](NC(=O)CCCCCCCCCCCCCCCCCCC(=O)O)C(=O)O)NC(=O)[C@H](CCC(=O)O)NC(=O)[C@H](CC(=O)O)NC(=O)[C@H](CC(C)C)NC(=O)C(C)(C)NC(=O)[C@@H](NC(=O)[C@H](CO)NC(=O)[C@H](Cc1ccc(O)cc1)NC(=O)[C@H](CC(=O)O)NC(=O)[C@H](CO)NC(=O)[C@@H](NC(=O)[C@](C)(Cc1ccccc1)NC(=O)[C@@H](NC(=O)CNC(=O)[C@H](CCC(=O)O)NC(=O)C(C)(C)NC(=O)[C@@H](N)Cc1ccc(O)cc1)[C@@H](C)O)[C@@H](C)O)[C@@H](C)CC)[C@@H](C)CC)C(=O)N[C@@H](CCC(=O)O)C(=O)NCC(=O)NCC(N)=O` [Example 102] (H-Y[Aib]EGT[αMeF]TSDYSI[Aib]LDEK([AEEA-AEEA-γGlu-C20 diacid])AQ[Aib]AFIEYLIEGG-NH2) the EC50 [1] was 0.0628 nM and the EC50 [2] was 0.178 nM.

In the case of `CC[C@H](C)[C@H](NC(=O)[C@H](CC(C)C)NC(=O)[C@H](Cc1ccc(O)cc1)NC(=O)[C@@H](CCC(=O)O)NC(=O)[C@@H](NC(=O)[C@H](Cc1ccccc1)NC(=O)[C@H](CCC(=O)O)NC(=O)C(C)(C)NC(=O)[C@H](CCC(N)=O)NC(=O)[C@H](C)NC(=O)[C@H](CCCCN)NC(=O)[C@H](CCC(=O)O)NC(=O)[C@H](CC(=O)O)NC(=O)[C@H](CC(C)C)NC(=O)[C@](C)(CC(C)C)NC(=O)[C@@H](NC(=O)[C@H](CO)NC(=O)[C@H](Cc1ccc(O)cc1)NC(=O)[C@H](CC(=O)O)NC(=O)[C@H](CO)NC(=O)[C@@H](NC(=O)[C@](C)(Cc1ccccc1F)NC(=O)[C@@H](NC(=O)CNC(=O)[C@H](CCC(=O)O)NC(=O)C(C)(C)NC(=O)[C@@H](N)Cc1ccc(O)cc1)[C@@H](C)O)[C@@H](C)O)[C@@H](C)CC)[C@@H](C)CC)C(=O)N[C@@H](CCC(=O)O)C(=O)NCC(=O)NCC(=O)N1CCC[C@H]1C(=O)N[C@@H](CO)C(=O)N[C@@H](CO)C(=O)NCC(=O)N[C@@H](C)C(=O)N1CCC[C@H]1C(=O)N1CCC[C@H]1C(=O)N1CCC[C@H]1C(=O)N[C@@H](CO)C(=O)N[C@@H](CS)C(N)=O` [Example 278] (H-Y[Aib]EGT[αMePhe(2-F)]TSDYSI[αMeL]LDEKAQ[Aib]EFI[dE]YLIEGGPSSGAPPPSC-NH2; N-terminus assumed), the EC50 [1] was 0.123 nM and the EC50 [2] was 0.293 nM.
